This note sets out measurements from patent publication US20170283426A1, “COMPOUNDS FOR THE INHIBITION OF CYCLOPHILINS AND USES THEREOF” (Merck Patent GmbH, priority 2016, published 2017).

As a reminder, the IC50 is the midpoint of a concentration-inhibition curve.

SMILES strings stand for the structures.

For test [1], the target named is T1, CypD (Homo sapiens, UniProt P30405). Briefly: CypD binding assay, competition Fluorescence-Polarisation with fluorescine labelled cyclosporin. On the procedure:
The binding capacity of the compounds were measured using a competition Fluorescence-Polarisation based assay with fluorescine labelled cyclosporin. The protocol used was adapted from Hausch et al, Med Chem lett 2010, p 536.

The target in test [2] is T1, CypD. Briefly: SPR binding. Conditions: SPR surface; read-out: SPR CypD (KDss). (In general: In SPR one partner is held on a chip, and binding of the other changes the refractive index at the surface.)
Description: Binding was confirmed on an SPR surface using a protocol adapted from Mori et al., J. Biomolecular Screening, 2009 p 419.

T1 sequence (P30405 30-207): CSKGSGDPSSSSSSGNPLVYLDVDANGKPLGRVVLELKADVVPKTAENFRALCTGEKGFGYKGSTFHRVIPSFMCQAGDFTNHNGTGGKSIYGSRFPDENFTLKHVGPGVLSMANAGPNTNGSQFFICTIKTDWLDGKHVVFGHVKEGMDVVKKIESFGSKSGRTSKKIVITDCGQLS

For `O=C(NCCc1ccc2c(c1)[C@H]1C[C@@H](N2)[C@H](O)CO1)C(=O)N[C@@H]1C[C@H]2CC[C@@H]1C2` [Compound 2, N-Bicyclo[2.2.1]hept-2-yl-N′-[2-((1R,9R,10S)-10-hydroxy-12-oxa-8-aza-tricyclo[7.3.1.02,7]trideca-2,4,6-trien-4-yl)-ethyl]-oxalamide], the IC50 on CypD [1] is below 10 µM. Moreover, the Kd at CypD [2] is below 10 µM.

`O=C(NCCc1ccccc1)C(=O)NCCc1ccc2c(c1)[C@H]1C[C@@H](N2)[C@H](O)CO1` [Compound 3, N1-(2-((2R,3S,6R)-3-hydroxy-2,3,4,6-tetrahydro-1H-2,6-methanobenzo[c][1,5]oxazocin-8-yl)ethyl)-N2-phenethyloxalamide]: the half-maximal inhibitory concentration (IC50) on CypD [1] is below 10 µM. Moreover, the Kd on CypD [2] is below 10 µM.

Consider `CC(C)CNC(=O)C(=O)NCCc1ccc2c(c1)[C@H]1C[C@@H](N2)[C@H](O)CO1` [Compound 4, N-1-(2-((2R,3S,6R)-3-hydroxy-2,3,4,6-tetrahydro-1H-2,6-methanobenzo[c][1,5]oxazocin-8-yl)ethyl)-N2-isobutyloxalamide], for which the IC50 at CypD [1] is below 10 µM. Also, the Kd on CypD [2] was below 10 µM.

On to `O=C(NCCc1cccc(C(F)(F)F)c1)C(=O)NCCc1ccc2c(c1)[C@H]1C[C@@H](N2)[C@H](O)CO1` [Compound 5, N1-(2-((2R,3S,6R)-3-hydroxy-2,3,4,6-tetrahydro-1H-2,6-methanobenzo[c][1,5]oxazocin-8-yl)ethyl)-N2-(3-(trifluoromethyl)phenethyl)oxalamide], for which, on CypD [1], the IC50 is below 10 µM. At CypD [2], the Kd is below 10 µM.

Molecule `CSc1ccccc1[C@H]1CCCN1C(=O)C(=O)NCCc1ccc2c(c1)[C@H]1C[C@@H](N2)[C@H](O)CO1` [Compound 6, N-[2-((1R,9R,10S)-10-hydroxy-12-oxa-8-aza-tricyclo[7.3.1.02,7]trideca-2(7),3,5-trien-4-yl)-ethyl]-2-[(R)-2-(2-methylsulfanyl-phenyl)-pyrrolidin-1-yl]-2-oxo-acetamide] gave a 50% inhibitory concentration (IC50) on CypD [1] of 10 to 100 µM. In addition, the Kd at CypD [2] was 10 to 100 µM.

In turn, `O=C(NCCc1ccccc1)C(=O)NCCc1ccc2c(c1)[C@@H]1C[C@H](N2)[C@H](O)CO1` [Compound 8, N1-(2-((2S,3S,6S)-3-hydroxy-2,3,4,6-tetrahydro-1H-2,6-methanobenzo[c][1,5]oxazocin-8-yl)ethyl)-N2-phenethyloxalamide] showed a half-maximal inhibitory concentration (IC50) on CypD [1] of 10 to 100 µM. For the same molecule, at CypD [2], the Kd was in the range of 10 to 100 µM.

For `CC(C)(C)CNC(=O)C(=O)NCCc1ccc2c(c1)[C@@H]1C[C@H](N2)[C@H](O)CO1` [Compound 10, N1-(2-((2S,3S,6S)-3-hydroxy-2,3,4,6-tetrahydro-1H-2,6-methanobenzo[c][1,5]oxazocin-8-yl)ethyl)-N2-neopentyloxalamide], on CypD [1], the concentration for half-maximal inhibition (IC50) fell in the range of 10 to 100 µM. Further, the Kd on CypD [2] fell in the range of 10 to 100 µM.

The molecule `O=C(NCCc1ccc2c(c1)[C@H]1C[C@@H](N2)[C@H](O)CO1)C(=O)NCc1cccc(C(F)(F)F)c1` [Compound 11, N1-(2-((2R,3S,6R)-3-hydroxy-2,3,4,6-tetrahydro-1H-2,6-methanobenzo[c][1,5]oxazocin-8-yl)ethyl)-N2-(3-(trifluoromethyl)benzyl)oxalamide] displayed a half-maximal inhibitory concentration (IC50) at CypD [1] of 10 to 100 µM. Further, the Kd at CypD [2] was 10 to 100 µM.

`O=C(NCCc1cccc(C(F)(F)F)c1)C(=O)NCCc1ccc2c(c1)[C@@H]1C[C@H](N2)[C@H](O)CO1` [Compound 12, N1-(2-((2S,3S,6S)-3-hydroxy-2,3,4,6-tetrahydro-1H-2,6-methanobenzo[c][1,5]oxazocin-8-yl)ethyl)-N2-(3-(trifluoromethyl)phenethyl)oxalamide] yielded a half-inhibitory concentration (IC50) on CypD [1] of 10 to 100 µM. Besides, the Kd at CypD [2] was 10 to 100 µM.

On CypD [1], `O=C(NCc1ccc2c(c1)[C@@H]1C[C@H](N2)[C@H](O)CO1)C(=O)NC1CCCC1` [Compound 13, N-Cyclopentyl-N′-((1S,9S,10S)-10-hydroxy-12-oxa-8-aza-tricyclo[7.3.1.02,7]trideca-2,4,6-trien-4-ylmethyl)-oxalamide] registered an IC50 of 10 to 100 µM. Further, on CypD [2], the Kd was 10 to 100 µM.
